How the values were obtained:
RARβ2 = assay: RT-PCR expression of RARβ2 in LKS+ and LKS− cells cultured with or without ATRA; type: cell-based, murine; details: cells derived from LKS+ and LKS− cultured with 1 μmol ATRA for 3, 7 or 14 days
Method: FACS-enriched hematopoietic precursors (lin− c-kit+ Sca-1+ or lin− c-kit+ Sca-1−) were added to wells containing media and cytokines (SCF, IL-6, IL-11 and Flt-3 ligand), and cultured without (No ATRA) or with (+ATRA) 1 μmol ATRA for 3, 7 or 14 days. […] LKS+=lin− c-kit+ Sca-1+ cells, LKS−=lin− c-kit+ Sca-1− cells; D=day of culture.
(§1) Consideration was then given to the expression of the different RARs by progeny derived from lin− c-kit+ Sca-1+ cells (LKS+) or lin− c-kit+ Sca-1− cells (LKS−) after they had been cultured with or without ATRA for 3, 7 and 14 days.

RARγ1 = assay: RT-PCR expression of RARγ1 in LKS+ and LKS− cells cultured with or without ATRA; type: cell-based, murine
Method: FACS-enriched hematopoietic precursors (lin− c-kit+ Sca-1+ or lin− c-kit+ Sca-1−) were added to wells containing media and cytokines (SCF, IL-6, IL-11 and Flt-3 ligand), and cultured without (No ATRA) or with (+ATRA) 1 μmol ATRA for 3, 7 or 14 days. After culture, the cells were retrieved, mRNA prepared and expression of RAR γ 1 was analysed by RT-PCR methods. LKS+=lin− c-kit+ Sca-1+ cells, LKS−=lin− c-kit+ Sca-1− cells; D=day of culture.
as §1

[1] = system: lin− c-kit+ Sca-1+ CD45.2+ (LKS) murine hematopoietic precursors; assay: Serial transplantation of LKS hematopoietic precursors cultured with or without ATRA (congenic mouse model); type: in vivo; details: for donor repopulating levels of quaternary transplant recipients: CD45.2+ donor cells in peripheral blood, mean ± SEM
Method: 2000 FACS-enriched hematopoietic precursors (lin− c-kit+ Sca-1+) were added to wells containing media and cytokines (SCF, IL-6, IL-11 and Flt-3 ligand), and cultured without (No ATRA) or with (ATRA) 1 umol ATRA. Irradiated primary Ly5.1 recipients (6 mice per group) were transplanted with 100 000 normal Ly5.1 bone marrow cells together with 1000 noncultured (Start) Ly5.2 lin− c-kit+ Sca-1+ cells or with all cells that grew from 1000 of these precursors after 3 (3D) or 7 (7D) days in liquid suspension culture. Subsequent transplants (secondary, tertiary and quaternary) were performed using fractions of bone marrow harvested from the primary, secondary or tertiary, respectively, transplant recipients. Data are expressed as the mean +/− SEM donor cell reconstitution in the peripheral blood of transplanted recipients analyzed at 6 months (primary recipients) or 3 months (secondary, tertiary and quaternary recipients) post-transplant.
These studies may be proven using in vivo assays, preferably using small animal models, more preferably using the congenic mouse hematopoietic stem cell transplantation model. This model relies on the use of donor and recipient mice that can be distinguished from each other by the presence of different epitopes for the leukocyte common antigen, which is present on all white blood cells.
Irradiated CD45.1+ primary murine recipients were transplanted with 1×10^5 normal CD45.1+ bone marrow cells together with 1000 freshly isolated lin− c-kit+ Sca-1+ CD45.2+ (LKS) murine hematopoietic precursors or with all cells that grew from 1000 LKS after 3 or 7 days of culture with or without 1 μM ATRA. Primary recipients were euthanased 6 months post-transplant, their femoral marrows flushed and pooled within treatment groups and bone marrow from 1/10th of a femur of these mice were injected into each secondary irradiated recipient. Subsequent serial transplants were likewise performed at 4 month intervals post-transplant, with the 5th serial transplant currently being assessed. Recipient mice were analysed for multilineage repopulating donor cells (>5% CD45.2+) in each round of transplants.

SMILES: CC1=C(/C=C/C(C)=C/C=C/C(C)=C/C(=O)O)C(C)(C)CCC1 [ATRA, all trans-retinoic acid]
- RARβ2 expression (RARβ2): upregulates RARβ2 in cultured cells
- RARγ1 expression (RARγ1; LKS+ cells cultured with 1 μmol ATRA for 3, 7 or 14 days): maintained
- RARγ1 expression (RARγ1; LKS− cells cultured with 1 μmol ATRA): not expressed
- donor repopulating levels of quaternary transplant recipients ([1]; LKS cultured 3 days with 1 μM ATRA): 20.09±8.63%
- donor repopulating levels of quaternary transplant recipients ([1]; LKS cultured 7 days with 1 μM ATRA): 14.98±5.94%
- multilineage donor reconstituting ability in serial transplant recipients ([1]; all serial transplant recipients of 3 day and 7 day ATRA-treated LKS (1 μM)): significant multilineage donor reconstituting ability
- evidence of leukemia in recipient mice ([1]; recipients of ATRA-treated LKS, successive rounds of transplants): nor was there any evidence of leukemia
- marrow cellularity of transplanted mice ([1]; successive rounds of transplants, all treatment groups compared): no significant difference in marrow cellularity

— patent publication US20030113913A1, “Method of enhancing self renewal of stem cells and uses thereof” (PETER MACCALLUM CANCER INSTITUTE, priority 2001, published 2003)
